Test results reported in patent US20240368174A1, “Antiviral Heterocyclic Compounds” (Enanta Pharmaceuticals, Inc., priority 2023, published 2024).

Tested on: HMPV clinical isolate A2 strain TN 94-49
Experiment: HMPV antiviral assay, Method 2 (LLC-MK2 cells with CP-100-356, ATP-Lite)
Assay type: cell-based
Conditions: human metapneumovirus
Outline: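 EC50 comes from a four-parameter fit of percent cell viability (ATP-Lite, normalized to virus-only and cell-only wells) after 7 days at 37 °C. Infection used HMPV A2 TN 94-49 at MOI 0.16 in LLC-MK2 cells, with 2 μM P-gp inhibitor CP-100-356 and 2 μg/mL TPCK-trypsin final; dose range 200 nM top, 2.5-fold, 10 points, duplicate.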

[1] = hMPV A2 TN/94-49, LLC-MK2 cells with CP-100-356, Method 2
[2] = 168 h, hMPV A2 TN/94-49, LLC-MK2 cells with 4 μM CP-100-356, 7 days, ATP-Lite

Structure (SMILES) | EC50 [1] [nM] | EC50 [2] [nM]
C[C@]1(C(N)=O)COc2c1cc([C@@](O)(CNC(=O)c1ccc3nc(-c4ccc5nc(C(F)F)oc5c4)oc3c1)c1ccccc1)nc2-c1cc(Cl)c(F)cc1F [Example 223] | > 200 | 
COc1cc(F)c(-c2nc([C@@](O)(CNC(=O)c3cc(OC)c4nn(C5(F)CC5)cc4c3)c3ccccc3)cc3c2OC[C@]3(C)C(N)=O)cc1F [Example 363] | > 200 | 
COc1cc(C(=O)NC[C@@](O)(c2ccccc2)c2cc3c(c(-c4cc(Cl)c(F)cc4F)n2)OC[C@]3(C)C(N)=O)cn2cc(C3CC3)nc12 [Example 115] | < 200 | 
COc1cc(C(=O)NC[C@@](O)(c2ccccc2)c2cc3c(c(-n4ncc5c(F)cccc54)n2)OC[C@]3(C)C(N)=O)cc2sc(N)nc12 [Example 633] |  | > 200
COc1cc(C(=O)NCC(O)(c2cccc(F)c2)c2cc3c(c(-c4cccc(Cl)c4C#N)n2)OC[C@]3(C)C(N)=O)cc2cn(C3(F)CC3)nc12 (stereo partly drawn) [Example 399] | > 200 | 
COc1nccc(-c2nc([C@@](O)(CNC(=O)c3cc(OC)c4nn(C(F)F)cc4c3)c3ccc(F)cc3)cc3c2OC[C@]3(C)C(N)=O)c1Cl [Example 698] |  | < 200
COc1cc(C(=O)NC[C@@](O)(c2ccccc2)c2cc3c(c(-c4ccc5c(c4)OC(F)(F)O5)n2)OC[C@]3(C)C(N)=O)cc2cc(Cl)cnc12 [Example 202] | < 200 | 
C[C@]1(C(N)=O)COc2c1cc([C@@](O)(CNC(=O)c1cc(OC3CC3)c3nn(C4(F)CC4)cc3c1)c1cccc(F)c1)nc2-c1cccc(Cl)c1Cl [Example 339] | < 200 | 
COc1cc(C(=O)NC[C@@](O)(c2cccc(F)n2)c2cc3c(c(-c4cc(Cl)c(F)cc4F)n2)OC[C@]3(C)C(N)=O)cc2cc(C3CC3)nn12 [Example 206] | < 200 | 
COc1cc(C(=O)NC[C@@](O)(c2cccc(F)c2)c2cc3c(c(-c4ccnc(C)c4Cl)n2)OC[C@]3(C)C(N)=O)cc2cc(Cl)c(C)nc12 [Example 700] |  | < 200
COc1nccc(-c2nc([C@@](O)(CNC(=O)c3cc(OC4CC4)c4nn(C(F)F)cc4c3)c3ccccc3)cc3c2OC[C@]3(C)C(N)=O)c1Cl [Example 901] |  | < 200
[2H]C([2H])([2H])c1nc2c(OC)cc(C(=O)NC[C@@](O)(c3ccccc3)c3cc4c(c(-n5ncc6c(F)cccc65)n3)OC[C@]4(C)C(N)=O)cc2s1 [Example 637] |  | < 200
COc1cc(C(=O)NC[C@@](O)(c2ccccc2)c2cc3c(c(-c4ccnc(C)c4Cl)n2)OC[C@]3(C)C(N)=O)cc2oc(C3CC3)nc12 [Example 695] |  | < 200
COc1nccc(-c2nc([C@@](O)(CNC(=O)c3cc(OC)c4nc(C)c(Cl)cc4c3)c3cccc(F)c3)cc3c2OC[C@]3(C)C(N)=O)c1Cl [Example 659] |  | < 200
COc1cc(-c2nc([C@@](O)(CNC(=O)c3cc(OC)c4nn(C5(F)CC5)cc4c3)c3ccccc3)cc3c2OC[C@]3(C)C(N)=O)c(F)cc1F [Example 364] | > 200 | 
C[C@]1(C(N)=O)COc2c1cc([C@@](O)(CNC(=O)c1cc(Cl)c3[nH]ncc3c1)c1ccccc1)nc2-c1cc(Cl)c(F)cc1F [Example 117] | > 200 | 
COc1cc(F)c(F)cc1-c1nc([C@@](O)(CNC(=O)c2cc(OC)c3nn(C4(F)CC4)cc3c2)c2ccccc2)cc2c1OC[C@]2(C)C(N)=O [Example 365] | < 200 | 
COc1nccc(-c2nc([C@@](O)(CNC(=O)c3cc(OC)c4nn(C(F)F)cc4c3)c3cccc(F)c3)cc3c2OC[C@]3(C)C(N)=O)c1Cl [Example 558] | < 200 | 
COc1cc(C(=O)NCC(O)(c2cc(F)nc(F)c2)c2cc3c(c(-c4cccc(Cl)c4Cl)n2)OC[C@]3(C)C(N)=O)cc2cn(C(F)F)nc12 (stereo partly drawn) [Example 500] | < 200 | 

Results, then the compound that gave them:

EC50 [1] [nM] | EC50 [2] [nM] | Structure (SMILES)
 | < 200 | COc1cc(C(=O)NC[C@](O)(c2cc3c(c(-c4c(F)cncc4F)n2)OC[C@]3(C)C(N)=O)C2CC2)cc2cn(C3CC3)nc12 [Example 729]
 | < 200 | COc1cccc2c1ccn2-c1nc([C@@](O)(CNC(=O)c2cc(OC)c3nn(C4CC4)cc3c2)C2CC2)cc2c1OC[C@]2(C)C(N)=O [Example 839]
< 200 |  | COc1cc(C(=O)NC[C@](O)(c2cc3c(c(-c4ccnc(F)c4Cl)n2)OC[C@]3(C)C(N)=O)C2CC2)cc2oc(C3CC3)nc12 [Example 208]
 | > 200 | CC(C)c1nccc(-c2nc([C@@](O)(CNC(=O)c3cc(OC4CC4)c4nn(C5CC5)cc4c3)C3CC3)cc3c2OC[C@]3(C)C(N)=O)c1Cl [Example 913]
< 200 |  | COc1cc(C(=O)NC[C@@](O)(c2cccc(F)n2)c2cc3c(c(-c4ccc(F)c(Cl)c4Cl)n2)OC[C@]3(C)C(N)=O)cc2cn(C3CC3)nc12 [Example 340]
< 200 |  | COc1nccc(-c2nc([C@@](O)(CNC(=O)c3cc(OC4CC4)c4nn(C5CC5)cc4c3)C(F)(F)F)cc3c2OC[C@]3(C)C(N)=O)c1Cl [Example 586]
< 200 |  | COc1cccc([C@](O)(CNC(=O)c2cc(OC)c3nn(C4CC4)cc3c2)c2cc3c(c(-c4cccc(Cl)c4Cl)n2)OC[C@]3(C)C(N)=O)n1 [Example 496]
< 200 |  | COc1cc(C(=O)NC[C@@](O)(c2cccc(F)c2)c2cc3c(c(-c4ccnc(C(F)F)c4Cl)n2)OC[C@]3(C)C(N)=O)cc2cn(C3CC3)nc12 [Example 565]
< 200 |  | COc1cc(C(=O)NC[C@](O)(c2cc3c(c(-c4c(F)cncc4Cl)n2)OC[C@]3(C)C(N)=O)C2CC2)cc2cn(C3CC3)nc12 [Example 434]
> 200 |  | COc1cc(C(=O)NC[C@](O)(c2cccc(F)c2)c2cc3c(c(-c4cc(C(F)(F)F)ncc4F)n2)OC[C@]3(C)C(N)=O)cc2cn(C3CC3)nc12 [Example 409]
> 200 |  | COc1cc(C(=O)NCC(O)(c2cc3c(c(-c4cc(C(F)(F)F)ncc4Cl)n2)OC[C@]3(C)C(N)=O)C2CC2)cc2cn(C3CC3)nc12 (stereo partly drawn) [Example 418]
 | > 200 | COc1nccc(-c2nc([C@@](O)(CNC(=O)c3cc(OC4CC4)c4nn(C(F)F)cc4c3)C3CC(F)(F)C3)cc3c2OC[C@]3(C)C(N)=O)c1Cl [Example 898]
< 200 |  | COc1nccc(-c2nc([C@@](O)(CNC(=O)c3cc(Cl)c4nn(C5CC5)cc4c3)C(F)(F)F)cc3c2OC[C@]3(C)C(N)=O)c1Cl [Example 544]
 | > 200 | COc1cc(C(=O)NC[C@](O)(c2cc3c(c(-n4cc5cc(F)ccc5n4)n2)OC[C@]3(C)C(N)=O)C2CC2)cc2cn(C3CC3)nc12 [Example 719]
< 200 |  | COc1cc(C(=O)NC[C@](O)(c2cc3c(c(-c4ccnc(Cl)c4Cl)n2)OC[C@]3(C)C(N)=O)C2CC2)cn2cc(C3CC3)nc12 [Example 578]
 | > 200 | COc1nccc(-c2nc([C@](O)(CNC(=O)c3cc(OC)c4nn(C5CC5)cc4c3)c3cccc(F)c3)cc3c2OC[C@]3(C)C(N)=O)c1Cl [Example 876]
 | < 200 | COc1cc(C(=O)NC[C@](O)(c2cc3c(c(-c4ccnc(C)c4F)n2)OC[C@]3(C)C(N)=O)C2CC2)cc2cn(C3CC3)nc12 [Example 817]
< 200 |  | COc1cc(C(=O)NC[C@@](O)(c2cnoc2)c2cc3c(c(-c4cc(Cl)c(F)cc4F)n2)OC[C@]3(C)C(N)=O)cc2cn(C3CC3)nc12 [Example 491]
 | < 200 | COc1nccc(-c2nc([C@@](O)(CNC(=O)c3cc(OC)c4nn(C(F)F)cc4c3)C3(F)CC3)cc3c2OC[C@]3(C)C(N)=O)c1Cl [Example 655]
< 200 |  | C[C@]1(C(N)=O)COc2c1cc([C@@](O)(CNC(=O)c1cc(C(F)F)c3nn(C4CC4)cc3c1)c1ccccc1)nc2-c1cc(Cl)c(F)cc1F [Example 229]
